Experimental data published in publication PMC7961380, “A Systematic Study of the In Vitro Pharmacokinetics and Estimated Human In Vivo Clearance of Indole and Indazole-3-Carboxamide Synthetic Cannabinoid Receptor Agonists Detected on the Illicit Drug Market” (Molecules, 2021).
“And” between values parts separate entries of the source, which are not always exact repeats. Equal entries are not always repeated. Where two headings read alike, the source gives them in different places.

Columns and labels:
[1] = Plasma protein binding by equilibrium dialysis; type: in vitro ADME, human; conditions: 37 °C; for fraction unbound at 5 h, 10 µg mL^−1: human, pooled human plasma, pH 7.4, equilibrium dialysis 5 h
[2] = Metabolic stability, pooled human liver microsome incubations; conditions: for Predicted In Vivo Hepatic Clearance, CLH: from pHLM CLint, well-stirred model with plasma fu, Q 21 mL min^−1 kg^−1; for CLint scaled at 0.5 µM / half-life at 0.5 µM: human, microsomes; for CLint scaled at 0.5 µM: pH 7.4, Intrinsic clearance; for half-life at 0.5 µM: pH 7.4, T1/2 (min), pHLM 0.5 mg mL^−1, 0.5 µM, NADPH, 37 °C; for half-life at 0.5 µM / Microsomal Intrinsic Clearance, CLint micr: n ≥ 3 ± SD
[3] = Short-term plasma stability with and without esterase inhibitors; conditions: human, pH 7.4, Parent Compound Remaining (%), 3 h, 37 °C
[4] = Metabolic stability, pooled human cryopreserved hepatocyte incubations; conditions: human, hepatocytes; for CLint scaled at 0.5 µM: Intrinsic clearance, pHHeps, alternative hepatocyte cell density 99x10^6 hepatocytes per gram liver
[5] = system: pooled human cryopreserved hepatocytes (pHHeps); test: as above; conditions: for Predicted In Vivo Hepatic Clearance, CLH: from pHHeps CLint, well-stirred model with plasma fu, Q 21 mL min^−1 kg^−1
[6] = 10 µg mL^−1, read-out: PPB (%) (converted)
[7] = plasma, read-out: Fraction Unbound (fu)
[8] = pHLM, alternative microsomal scaling factor 32 mg microsomal protein per gram liver
[9] = pHLM, alternative microsomal scaling factor 45 mg microsomal protein per gram liver
[10] = pHLM, scaling factor 32 mg microsomal protein per gram liver
[11] = pHLM, scaling factor 45 mg microsomal protein per gram liver
[12] = Esterase Inhibitors, pH 7.4, BNPP and PMSF 500 µM each
[13] = plasma, No Esterase Inhibitors, pH 7.4, pooled human plasma
[14] = T1/2 (min), pHHeps 0.25 million cells mL^−1, 0.5 µM, 37 °C, n ≥ 3 ± SD
[15] = pHHeps, 99x10^6 hepatocytes per gram liver

Row | Compound | Predicted In Vivo Hepatic Clearance, CLH [2] | Hepatic extraction ratio, EH ([2]; from pHLM incubations) | CLint scaled at 0.5 µM [2, 8] [mL/min/kg] | CLint scaled at 0.5 µM [2, 9] [mL/min/kg] | half-life at 0.5 µM [2] [min] | % parent compound remaining, Average ([2]; pHLM, 3 min) [%] | % parent compound remaining, Average ([2]; pHLM, 6 min) [%] | % parent compound remaining, Average ([2]; pHLM, 9 min) [%] | % parent compound remaining, Average ([2]; pHLM, 15 min) [%] | % parent compound remaining, Average ([2]; pHLM, 30 min) [%] | Microsomal Intrinsic Clearance, CLint micr ([2]; pHLM) | Hepatic extraction ratio, EH [2, 10] | Predicted in vivo hepatic clearance, CLH [2, 10] [mL/min/kg] | Hepatic extraction ratio, EH [2, 11] | Predicted in vivo hepatic clearance, CLH [2, 11] [mL/min/kg] | remaining at 3 h, 5 µM [3, 12] [%] | remaining at 3 h, 5 µM [3, 13] [%] | CLint scaled at 0.5 µM [4] [mL/min/kg] | half-life at 0.5 µM [4, 14] [min] | Predicted In Vivo Hepatic Clearance, CLH [5] | also measured
1 | COC(=O)[C@@H](NC(=O)c1nn(CCCCCF)c2ccccc12)C(C)C [(S)-5F-AMB-PINACA (10), methyl [1-(5-fluoropentyl)-1H-indazole-3-carbonyl]valinate] | 17.79 mL/min/kg and 17.79 ± 0.20 mL/min/kg | 0.85 and 0.85 ± 0.010 | 1230 | 1730 ± 133 | 0.9 ± 0.07 | 10.6 | 1.8 | 0.0 | 0.0 | 0.0 | 1.494 ± 0.115 mL min^−1 mg Microsomal Protein^−1 | 0.77 ± 0.013 | 16.21 | 0.83 ± 0.011 | 17.35 ± 0.22 | 89.8 ± 1.5 | 93 ± 6.1 | 2220 ± 115 | 3.2 ± 0.16 | 18.25 mL/min/kg and 18.25 ± 0.12 mL/min/kg | fraction unbound at 5 h, 10 µg mL^−1 [1, 6]: 0.058; fraction unbound at 5 h, 10 µg mL^−1 [1, 7]: 0.058 ± 0.0008; Hepatic extraction ratio, EH ([5]; from pHHeps incubations): 0.87 and 0.87 ± 0.006; Hepatic extraction ratio, EH [5, 15]: 0.86 ± 0.006; Predicted in vivo hepatic clearance, CLH [5, 15]: 18.06 ± 0.13 mL/min/kg; % parent compound remaining, Average ([5]; pHHeps, 3 min): 60.1%; % parent compound remaining, Average ([5]; pHHeps, 6 min): 23.2%; % parent compound remaining, Average ([5]; pHHeps, 9 min): 11.4%; % parent compound remaining, Average ([5]; pHHeps, 15 min): 3.0%; % parent compound remaining, Average ([5]; pHHeps, 30 min): 0.3%; % parent compound remaining, Average ([5]; pHHeps, 45 min): 0.1%; % parent compound remaining, Average ([5]; pHHeps, 60 min): 0.2%
2 | COC(=O)[C@@H](NC(=O)c1cn(CCCCCF)c2ccccc12)C(C)(C)C [(S)-5F-MDMB-PICA (3), methyl 2-[1-(5-fluoropentyl)-1H-indole-3-carboxamido]-3,3-dimethylbutanoate] | 8.01 ± 0.84 mL/min/kg | 0.38 ± 0.04 | 128 | 181 ± 31.6 | 9 ± 1.4 | 63.9 | 56.3 | 49.2 | 32.1 | 12.8 | 0.156 ± 0.027 mL min^−1 mg Microsomal Protein^−1 | 0.27 ± 0.034 | 5.75 | 0.35 ± 0.038 | 7.27 ± 0.81 | 99.5 ± 5.8 | 97.3 ± 6.4 | 188 | 38 ± 4.6 | 7.87 ± 0.58 mL/min/kg | fraction unbound at 5 h, 10 µg mL^−1 [1, 6]: 0.062; fraction unbound at 5 h, 10 µg mL^−1 [1, 7]: 0.062 ± 0.0007; Hepatic extraction ratio, EH ([5]; from pHHeps incubations): 0.37 ± 0.027; Hepatic extraction ratio, EH [5, 15]: 0.36 ± 0.027; Predicted in vivo hepatic clearance, CLH [5, 15]: 7.49 ± 0.56 mL/min/kg; % parent compound remaining, Average ([5]; pHHeps, 3 min): 96.7%; % parent compound remaining, Average ([5]; pHHeps, 6 min): 91.2%; % parent compound remaining, Average ([5]; pHHeps, 9 min): 90.7%; % parent compound remaining, Average ([5]; pHHeps, 15 min): 77.0%; % parent compound remaining, Average ([5]; pHHeps, 30 min): 57.6%; % parent compound remaining, Average ([5]; pHHeps, 45 min): 42.5%; % parent compound remaining, Average ([5]; pHHeps, 60 min): 30.9%
3 | COC(=O)[C@@H](NC(=O)c1nn(CCCCCF)c2ccccc12)C(C)(C)C [(S)-5F-MDMB-PINACA (2), methyl 2-[1-(5-fluoropentyl)-1H-indazole-3-carboxamido]-3,3-dimethylbutanoate] | 4.76 ± 0.17 mL/min/kg | 0.23 ± 0.008 | 171 | 240 ± 11 | 6.7 ± 0.31 | 69.9 | 51.7 | 39.0 | 22.7 | 6.1 | 0.207 ± 0.009 mL min^−1 mg Microsomal Protein^−1 | 0.15 ± 0.006 | 3.18 | 0.20 ± 0.007 | 4.22 ± 0.15 | 97 ± 1.1 | 92.5 ± 10.2 | 559 | 13 ± 3.3 | 8.05 ± 1.15 mL/min/kg | PPB (%) ([1]; equilibrium dialysis 5 h, 10 µg mL^−1): 97.8 ± 0.19%; Fraction Unbound (fu) ([1]; equilibrium dialysis 5 h, plasma): 0.022 ± 0.0019; half-life at 0.5 µM ([4]; half-life, pHHep lot HUE50-N): 13.3 ± 3.4 min; Hepatic extraction ratio, EH ([5]; from pHHeps incubations): 0.38 ± 0.055; half-life ([5]; pHHep lot HUE50-P): 13.2 ± 3.4 min; Hepatic extraction ratio, EH [5, 15]: 0.37; Predicted in vivo hepatic clearance, CLH [5, 15]: 7.67 mL/min/kg; % parent compound remaining, Average ([5]; pHHeps, 3 min): 77.3%; % parent compound remaining, Average ([5]; pHHeps, 6 min): 66.9%; % parent compound remaining, Average ([5]; pHHeps, 9 min): 57.5%; % parent compound remaining, Average ([5]; pHHeps, 15 min): 48.3%; % parent compound remaining, Average ([5]; pHHeps, 30 min): 21.1%; % parent compound remaining, Average ([5]; pHHeps, 45 min): 10.6%; % parent compound remaining, Average ([5]; pHHeps, 60 min): 5.6%
4 | CC(C)[C@H](NC(=O)c1nn(Cc2ccc(F)cc2)c2ccccc12)C(N)=O [(S)-AB-FUBINACA (8), N-(1-amino-3-methyl-1-oxobutan-2-yl)-1-(4-fluorobenzyl)-1H-indazole-3-carboxamide] | 0.34 mL/min/kg and 0.34 ± 0.09 mL/min/kg | 0.02 and 0.02 ± 0.004 | 10 | 14.1 | 118 ± 28 | 87.3 | 87.3 | 85.0 | 84.2 | 79.6 | 0.012 ± 0.003 mL min^−1 mg Microsomal Protein^−1 | 0.01 ± 0.003 | 0.21 ± 0.05 | 0.01 ± 0.004 | 0.29 ± 0.07 | 103 ± 2.5 | 104 ± 1.1 | 101 ± 32 | 76 ± 24 | 2.06 ± 0.58 mL/min/kg | fraction unbound at 5 h, 10 µg mL^−1 [1, 6]: 0.021; fraction unbound at 5 h, 10 µg mL^−1 [1, 7]: 0.021 ± 0.0044; Hepatic extraction ratio, EH ([5]; from pHHeps incubations): 0.10 ± 0.028; Hepatic extraction ratio, EH [5, 15]: 0.09 ± 0.026; Predicted in vivo hepatic clearance, CLH [5, 15]: 1.92 ± 0.55 mL/min/kg; % parent compound remaining, Average ([5]; pHHeps, 3 min): 93.3%; % parent compound remaining, Average ([5]; pHHeps, 6 min): 86.0%; % parent compound remaining, Average ([5]; pHHeps, 9 min): 85.5%; % parent compound remaining, Average ([5]; pHHeps, 15 min): 85.4%; % parent compound remaining, Average ([5]; pHHeps, 30 min): 72.4%; % parent compound remaining, Average ([5]; pHHeps, 45 min): 69.5%; % parent compound remaining, Average ([5]; pHHeps, 60 min): 66.6%
